Laboratory results reported in patent US20020012738A1, “Low calorie fat compositions” (priority 2000, published 2002).

Columns and labels:
[1] = biological target: T1, porcine lipase (Sus scrofa, UniProt P00591); assay: Hydrolysis by pancreatic lipase, aqueous emulsion assay; type: in vitro ADME; details: 30° C., Bis-Tris propane buffer pH 7.8, HMPC, sodium cholate, 300 mg fat, unit assumed
T1 sequence (P00591 1-450): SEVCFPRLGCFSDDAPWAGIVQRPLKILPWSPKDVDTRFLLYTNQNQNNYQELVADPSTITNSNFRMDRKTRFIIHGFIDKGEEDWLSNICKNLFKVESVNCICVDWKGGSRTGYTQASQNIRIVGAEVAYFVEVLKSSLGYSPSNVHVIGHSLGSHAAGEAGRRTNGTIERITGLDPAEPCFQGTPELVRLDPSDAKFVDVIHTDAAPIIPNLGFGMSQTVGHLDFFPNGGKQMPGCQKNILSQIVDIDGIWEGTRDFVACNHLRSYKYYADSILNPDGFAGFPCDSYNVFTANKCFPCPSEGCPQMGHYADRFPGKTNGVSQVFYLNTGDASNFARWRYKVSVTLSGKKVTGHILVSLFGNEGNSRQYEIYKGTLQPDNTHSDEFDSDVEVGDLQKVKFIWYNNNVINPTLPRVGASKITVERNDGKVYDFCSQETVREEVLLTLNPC
Method: The digestibility of the wax esters derived from long chain and medium chain combinations (III and IV) of the present invention were done to compare with triolein and wax esters derived from long chain acids and long chain alcohols. The in-vitro assays were done using two emulsion systems as in the following procedure. A mixture of 300 mg of the fat/fat substitute, 4 ml of Bis-Tris propane buffer (10 mM, pH 7.8), 5 ml of hydroxyproylmethylcellulose (HMPC, […]), 0.5 ml of sodium cholate (0.1 M) were sonicated to disperse the fats and incubated at 30° C. Porcine lipase (0.5 ml, 20 mg/ml) was added. The analysis of the reaction was carried out as in the above organic solution assay.

[2] = biological target: T1, porcine lipase; assay: Hydrolysis by pancreatic lipase, organic solution assay; type: in vitro ADME; details: 30° C., tamyl alcohol, Bis-Tris propane buffer pH 7.8, 300 mg fat, unit assumed
Method: The digestibility of the wax esters derived from long chain and medium chain combinations (III and IV) of the present invention were done to compare with triolein and wax esters derived from long chain acids and long chain alcohols. The in-vitro assays were done using two emulsion systems as in the following procedure. Each digest was carried out with 300 mg of the fat/fat substitute, 9 ml of the ^tamyl alcohol, 0.5 ml of Bis-Tris propane buffer (10 mM, pH 7.8) and 0.5 ml of porcine lipase (20 mg/mi). The reaction was incubated at 30° C. and the reaction stopped by adding 1 ml aliquots to 3 ml of isopropanol/heptane/sulfuric acid (40/10/1). The product was extracted with heptane and analyzed by GC and GC-MS at 360° C.

CCCCCCCC/C=C\CCCCCCCC(=O)OCC(COC(=O)CCCCCCC/C=C\CCCCCCCC)OC(=O)CCCCCCC/C=C\CCCCCCCC [Triolein, reference compound]
Hydrolysis by pancreatic lipase, Aqueous Emulsion Assay 24 hr [1]: 93.3% | Hydrolysis by pancreatic lipase, Organic Solution Assay 24 hr [2]: 69.2%

CCCCCCCCCCCCCCCCCCCCOC(=O)CCCCCCC [Arachidyl caprylate]
Hydrolysis by pancreatic lipase, Aqueous Emulsion Assay 24 hr [1]: 14.7% | Hydrolysis by pancreatic lipase, Organic Solution Assay 24 hr [2]: 7.6%

CCCCCCCCCCCCCCCCCCCCOC(=O)CCCCC [Arachidyl caproate]
Hydrolysis by pancreatic lipase, Aqueous Emulsion Assay 24 hr [1]: 4% | Hydrolysis by pancreatic lipase, Organic Solution Assay 24 hr [2]: 2.2%

CCCCCCCCCCCCCCCCCCCC(=O)OCCCCCC [Hexyl arachidate]
Hydrolysis by pancreatic lipase, Aqueous Emulsion Assay 24 hr [1]: 11.7% | Hydrolysis by pancreatic lipase, Organic Solution Assay 24 hr [2]: 5.4%
